Experimental data reported in US6852673B2, “Herbicidal pyridine compounds” (BASF Aktiengesellschaft, priority 1998, dated 2005).

Tests used:
Assay type in all cases: in vivo
Glycine max (GLXMA) [1] = test: Pre-emergence herbicidal evaluation, soyabeans
In short: (§1)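 Rating done 2–4 weeks post-treatment in the greenhouse. Compound, in aqueous acetone, was sprayed onto soil surface right after sowing, at rates equivalent to about 0.0125–0.4 kg per hectare, before crop or weed emergence.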

Oryza sativum (ORYSA) = test: Pre-emergence herbicidal evaluation, rice
In short: as §1

[2] = tested on: Triticum aestivum (TRZAW); test: Pre-emergence herbicidal evaluation, winter wheat
In short: as §1

Zea mays (ZEAMX) [3] = test: Pre-emergence herbicidal evaluation, maize
In short: as §1

[4] = tested on: Abutilon theophrasti (ABUTH); test: Pre-emergence herbicidal evaluation, velvetleaf
In short: as §1

[5] = tested on: Ambrosia artemiisifolia (AMBEL); test: Pre-emergence herbicidal evaluation, ragweed
In short: as §1

Galium aparine (GALAP) = test: Pre-emergence herbicidal evaluation, cleaver
In short: as §1

Lamium purpureum (LAMPU) [6] = test: Pre-emergence herbicidal evaluation, purple deadnettle
In short: as §1

Stellaria media (STEME) [7] = test: Pre-emergence herbicidal evaluation, chickweed
In short: as §1

[8] = tested on: Alopecurus myosuroides (ALOMY); test: Pre-emergence herbicidal evaluation, black grass
In short: as §1

[9] = tested on: Echinochloa grus galli (ECHCG); test: Pre-emergence herbicidal evaluation, barnyard grass
In short: as §1

Setaria viridis (SETVI) [10] = test: Pre-emergence herbicidal evaluation, green foxtail
In short: as §1

Glycine max (GLXMA) [11] = test: Post-emergence herbicidal evaluation, soyabeans; conditions: rated 2 to 4 weeks after treatment
Experimental: [table] [table] […] These acetone solutions are diluted with water and the resulting formulations applied at dosage levels equivalent of about 0.03 to 0.4 kg per hectare of test compound per pot. After spraying the plants are placed on greenhouse benches and are cared for in the usual manner, commensurate with conventional greenhouse practices. From 2 to 4 weeks after treatment, the seedling plants are examined and rated according to the rating system provided above. A rating 0 indicates growth as untreated control, a rating 9 indicates death.

Hordeum vulgare (HORVW) = test: Post-emergence herbicidal evaluation, winter barley; conditions: rated 2 to 4 weeks after treatment
In short: (§2)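 Rating scale 0 (same growth as untreated control) to 9 (death), scored 2–4 weeks after treatment. Sprays were water-diluted acetone solutions applied to emerged plants at about 0.03–0.4 kg/ha test compound per pot, followed by standard greenhouse care.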

[12] = tested on: Triticum aestivum (TRZAW); test: Post-emergence herbicidal evaluation, winter wheat; conditions: rated 2 to 4 weeks after treatment
In short: as §2

Zea mays (ZEAMX) [13] = test: Post-emergence herbicidal evaluation, maize; conditions: rated 2 to 4 weeks after treatment
In short: as §2

[14] = tested on: Ambrosia artemiisifolia (AMBEL); test: Post-emergence herbicidal evaluation, ragweed; conditions: rated 2 to 4 weeks after treatment
In short: as §2

[15] = tested on: Ipomoea hederacea (IPOHE); test: Post-emergence herbicidal evaluation, morning glory; conditions: rated 2 to 4 weeks after treatment
In short: as §2

Lamium purpureum (LAMPU) [16] = test: Post-emergence herbicidal evaluation, purple deadnettle; conditions: rated 2 to 4 weeks after treatment
In short: as §2

[17] = tested on: Matricaria inodora (MATIN); test: Post-emergence herbicidal evaluation, mayweed; conditions: rated 2 to 4 weeks after treatment
In short: as §2

Solanum nigrum (SOLNI) = test: Post-emergence herbicidal evaluation, black nightshade; conditions: rated 2 to 4 weeks after treatment
In short: as §2

Stellaria media (STEME) [18] = test: Post-emergence herbicidal evaluation, chickweed; conditions: rated 2 to 4 weeks after treatment
In short: as §2

[19] = tested on: Alopecurus myosuroides (ALOMY); test: Post-emergence herbicidal evaluation, black grass; conditions: rated 2 to 4 weeks after treatment
In short: as §2

[20] = tested on: Digitaria sanguinalis (DIGSA); test: Post-emergence herbicidal evaluation, large crabgrass; conditions: rated 2 to 4 weeks after treatment
In short: as §2

[21] = tested on: Echinochloa grus galli (ECHCG); test: Post-emergence herbicidal evaluation, barnyard grass; conditions: rated 2 to 4 weeks after treatment
In short: as §2

Setaria viridis (SETVI) [22] = test: Post-emergence herbicidal evaluation, green foxtail; conditions: rated 2 to 4 weeks after treatment
In short: as §2

## Cc1cc(OC=CCC(F)(F)F)nc(Oc2cc(C(F)(F)F)nn2C)c1 [Example 2, 2-(1-Methyl-3-trifluoromethylpyrazol-5-yloxy)-4-methyl-6-(4,4,4-trifluorobut-1-enyloxy)pyridine]
Glycine max (GLXMA) [1]; dose 0.013 kg/ha
  GLXMA rating: 0 (0 - No effect)
Glycine max (GLXMA) [1]; dose 0.025 kg/ha
  GLXMA rating: 1 (1 - Trace effect)
Glycine max (GLXMA) [1]; dose 0.4 kg/ha
  GLXMA rating: 4 (4 - Injury)
Oryza sativum (ORYSA); dose 0.013 kg/ha
  ORYSA rating: 0 (0 - No effect)
Oryza sativum (ORYSA); dose 0.025 kg/ha
  ORYSA rating: 1 (1 - Trace effect)
Oryza sativum (ORYSA); dose 0.1 kg/ha
  ORYSA rating: 2 (2 - Slight effect)
Oryza sativum (ORYSA); dose 0.4 kg/ha
  ORYSA rating: 3 (3 - Moderate effect)
[2]; dose 0.013 kg/ha
  TRZAW rating: 0 (0 - No effect)
[2]; dose 0.025 kg/ha
  TRZAW rating: 0 (0 - No effect)
[2]; dose 0.1 kg/ha
  TRZAW rating: 1 (1 - Trace effect)
[2]; dose 0.4 kg/ha
  TRZAW rating: 3 (3 - Moderate effect)
Zea mays (ZEAMX) [3]; dose 0.013 kg/ha
  ZEAMX rating: 0 (0 - No effect)
Zea mays (ZEAMX) [3]; dose 0.025 kg/ha
  ZEAMX rating: 1 (1 - Trace effect)
Zea mays (ZEAMX) [3]; dose 0.1 kg/ha
  ZEAMX rating: 2 (2 - Slight effect)
Zea mays (ZEAMX) [3]; dose 0.4 kg/ha
  ZEAMX rating: 4 (4 - Injury)
[4]; dose 0.013 kg/ha
  ABUTH rating: 1 (1 - Trace effect)
[4]; dose 0.025 kg/ha
  ABUTH rating: 4 (4 - Injury)
[4]; dose 0.1 kg/ha
  ABUTH rating: 6 (6 - Herbicidal effect)
[4]; dose 0.4 kg/ha
  ABUTH rating: 9 (9 - Complete kill)
[5]; dose 0.013 kg/ha
  AMBEL rating: 1 (1 - Trace effect)
[5]; dose 0.025 kg/ha
  AMBEL rating: 3 (3 - Moderate effect)
[5]; dose 0.1 kg/ha
  AMBEL rating: 8 (8 - Approaching complete kill)
[5]; dose 0.4 kg/ha
  AMBEL rating: 9 (9 - Complete kill)
Galium aparine (GALAP); dose 0.013 kg/ha
  GALAP rating: 0 (0 - No effect)
Galium aparine (GALAP); dose 0.025 kg/ha
  GALAP rating: 0 (0 - No effect)
Galium aparine (GALAP); dose 0.1 kg/ha
  GALAP rating: 2 (2 - Slight effect)
Galium aparine (GALAP); dose 0.4 kg/ha
  GALAP rating: 9 (9 - Complete kill)
Lamium purpureum (LAMPU) [6]; dose 0.013 kg/ha
  LAMPU rating: 8 (8 - Approaching complete kill)
Lamium purpureum (LAMPU) [6]; dose 0.025 kg/ha
  LAMPU rating: 8 (8 - Approaching complete kill)
Lamium purpureum (LAMPU) [6]; dose 0.1 kg/ha
  LAMPU rating: 9 (9 - Complete kill)
Lamium purpureum (LAMPU) [6]; dose 0.4 kg/ha
  LAMPU rating: 9 (9 - Complete kill)
Stellaria media (STEME) [7]; dose 0.013 kg/ha
  STEME rating: 0 (0 - No effect)
Stellaria media (STEME) [7]; dose 0.025 kg/ha
  STEME rating: 0 (0 - No effect)
Stellaria media (STEME) [7]; dose 0.1 kg/ha
  STEME rating: 9 (9 - Complete kill)
Stellaria media (STEME) [7]; dose 0.4 kg/ha
  STEME rating: 9 (9 - Complete kill)
[8]; dose 0.013 kg/ha
  ALOMY rating: 1 (1 - Trace effect)
[8]; dose 0.025 kg/ha
  ALOMY rating: 1 (1 - Trace effect)
[8]; dose 0.1 kg/ha
  ALOMY rating: 7 (7 - Good herbicidal effect)
[8]; dose 0.4 kg/ha
  ALOMY rating: 9 (9 - Complete kill)
[9]; dose 0.013 kg/ha
  ECHCG rating: 0 (0 - No effect)
[9]; dose 0.025 kg/ha
  ECHCG rating: 2 (2 - Slight effect)
[9]; dose 0.1 kg/ha
  ECHCG rating: 8 (8 - Approaching complete kill)
[9]; dose 0.4 kg/ha
  ECHCG rating: 9 (9 - Complete kill)
Setaria viridis (SETVI) [10]; dose 0.013 kg/ha
  SETVI rating: 5 (5 - Definite injury)
Setaria viridis (SETVI) [10]; dose 0.025 kg/ha
  SETVI rating: 6 (6 - Herbicidal effect)
Setaria viridis (SETVI) [10]; dose 0.1 kg/ha
  SETVI rating: 9 (9 - Complete kill)
Setaria viridis (SETVI) [10]; dose 0.4 kg/ha
  SETVI rating: 9 (9 - Complete kill)
Glycine max (GLXMA) [11]; dose 0.03 kg/ha
  GLXMA rating: 7 (7 - Good herbicidal effect)
Glycine max (GLXMA) [11]; dose 0.1 kg/ha
  GLXMA rating: 8 (8 - Approaching complete kill)
Glycine max (GLXMA) [11]; dose 0.4 kg/ha
  GLXMA rating: 8 (8 - Approaching complete kill)
Hordeum vulgare (HORVW); dose 0.03 kg/ha
  HORVW rating: 3 (3 - Moderate effect)
Hordeum vulgare (HORVW); dose 0.1 kg/ha
  HORVW rating: 3 (3 - Moderate effect)
Hordeum vulgare (HORVW); dose 0.4 kg/ha
  HORVW rating: 3 (3 - Moderate effect)
[12]; dose 0.03 kg/ha
  TRZAW rating: 2 (2 - Slight effect)
[12]; dose 0.1 kg/ha
  TRZAW rating: 3 (3 - Moderate effect)
[12]; dose 0.4 kg/ha
  TRZAW rating: 3 (3 - Moderate effect)
Zea mays (ZEAMX) [13]; dose 0.03 kg/ha
  ZEAMX rating: 2 (2 - Slight effect)
Zea mays (ZEAMX) [13]; dose 0.1 kg/ha
  ZEAMX rating: 4 (4 - Injury)
Zea mays (ZEAMX) [13]; dose 0.4 kg/ha
  ZEAMX rating: 5 (5 - Definite injury)
[14]; dose 0.03 kg/ha
  AMBEL rating: 5 (5 - Definite injury)
[14]; dose 0.1 kg/ha
  AMBEL rating: 6 (6 - Herbicidal effect)
[14]; dose 0.4 kg/ha
  AMBEL rating: 8 (8 - Approaching complete kill)
[15]; dose 0.03 kg/ha
  IPOHE rating: 8 (8 - Approaching complete kill)
[15]; dose 0.1 kg/ha
  IPOHE rating: 9 (9 - Complete kill)
[15]; dose 0.4 kg/ha
  IPOHE rating: 9 (9 - Complete kill)
Lamium purpureum (LAMPU) [16]; dose 0.03 kg/ha
  LAMPU rating: 8 (8 - Approaching complete kill)
Lamium purpureum (LAMPU) [16]; dose 0.1 kg/ha
  LAMPU rating: 8 (8 - Approaching complete kill)
Lamium purpureum (LAMPU) [16]; dose 0.4 kg/ha
  LAMPU rating: 8 (8 - Approaching complete kill)
[17]; dose 0.03 kg/ha
  MATIN rating: 6 (6 - Herbicidal effect)
[17]; dose 0.1 kg/ha
  MATIN rating: 8 (8 - Approaching complete kill)
[17]; dose 0.4 kg/ha
  MATIN rating: 9 (9 - Complete kill)
Solanum nigrum (SOLNI); dose 0.03 kg/ha
  SOLNI rating: 7 (7 - Good herbicidal effect)
Solanum nigrum (SOLNI); dose 0.1 kg/ha
  SOLNI rating: 8 (8 - Approaching complete kill)
Solanum nigrum (SOLNI); dose 0.4 kg/ha
  SOLNI rating: 8 (8 - Approaching complete kill)
Stellaria media (STEME) [18]; dose 0.03 kg/ha
  STEME rating: 4 (4 - Injury)
Stellaria media (STEME) [18]; dose 0.1 kg/ha
  STEME rating: 6 (6 - Herbicidal effect)
Stellaria media (STEME) [18]; dose 0.4 kg/ha
  STEME rating: 8 (8 - Approaching complete kill)
[19]; dose 0.03 kg/ha
  ALOMY rating: 2 (2 - Slight effect)
[19]; dose 0.1 kg/ha
  ALOMY rating: 5 (5 - Definite injury)
[19]; dose 0.4 kg/ha
  ALOMY rating: 8 (8 - Approaching complete kill)
[20]; dose 0.03 kg/ha
  DIGSA rating: 7 (7 - Good herbicidal effect)
[20]; dose 0.1 kg/ha
  DIGSA rating: 9 (9 - Complete kill)
[20]; dose 0.4 kg/ha
  DIGSA rating: 9 (9 - Complete kill)
[21]; dose 0.03 kg/ha
  ECHCG rating: 2 (2 - Slight effect)
[21]; dose 0.1 kg/ha
  ECHCG rating: 5 (5 - Definite injury)
[21]; dose 0.4 kg/ha
  ECHCG rating: 7 (7 - Good herbicidal effect)
Setaria viridis (SETVI) [22]; dose 0.03 kg/ha
  SETVI rating: 4 (4 - Injury)
Setaria viridis (SETVI) [22]; dose 0.1 kg/ha
  SETVI rating: 8 (8 - Approaching complete kill)
Setaria viridis (SETVI) [22]; dose 0.4 kg/ha
  SETVI rating: 8 (8 - Approaching complete kill)
